One compound from paper PMC7180948, “New Insights into 4-Anilinoquinazolines as Inhibitors of Cardiac Troponin I–Interacting Kinase (TNNi3K)” (Molecules, 2020) can be followed below.

One may read the inhibition as the relative decrease from the control value, in per cent.

Assay in all cases: biochemical
What all share (design): KINOMEscan competition binding panel (Eurofins DiscoverX), single concentration, % inhibition
What all share (conditions): read-out: 7 at 1 µM % inhibition

One assay concerns the target CAMK2D (Homo sapiens, UniProt Q13557). The method, boiled down: (§1)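 Compounds were submitted at 1 µM to a KINOMEscan assay covering more than 400 human kinases. The screen served to define the selectivity profile.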
The target of the next assay is FGFR2 (Homo sapiens, UniProt P21802). The method, boiled down: as §1
The target of a further assay is FLT3(D835H) (Homo sapiens, UniProt P36888, D835H). The method, boiled down: as §1
Another assay has as its target T1, MST3 (Homo sapiens, UniProt Q9Y6E0).
T1 construct: gene STK24
Put shortly: as §1

The next assay deals with T2, ERK4 (Homo sapiens, UniProt P31152).
T2 construct: gene MAPK4
T2 sequence (P31152 whole entry): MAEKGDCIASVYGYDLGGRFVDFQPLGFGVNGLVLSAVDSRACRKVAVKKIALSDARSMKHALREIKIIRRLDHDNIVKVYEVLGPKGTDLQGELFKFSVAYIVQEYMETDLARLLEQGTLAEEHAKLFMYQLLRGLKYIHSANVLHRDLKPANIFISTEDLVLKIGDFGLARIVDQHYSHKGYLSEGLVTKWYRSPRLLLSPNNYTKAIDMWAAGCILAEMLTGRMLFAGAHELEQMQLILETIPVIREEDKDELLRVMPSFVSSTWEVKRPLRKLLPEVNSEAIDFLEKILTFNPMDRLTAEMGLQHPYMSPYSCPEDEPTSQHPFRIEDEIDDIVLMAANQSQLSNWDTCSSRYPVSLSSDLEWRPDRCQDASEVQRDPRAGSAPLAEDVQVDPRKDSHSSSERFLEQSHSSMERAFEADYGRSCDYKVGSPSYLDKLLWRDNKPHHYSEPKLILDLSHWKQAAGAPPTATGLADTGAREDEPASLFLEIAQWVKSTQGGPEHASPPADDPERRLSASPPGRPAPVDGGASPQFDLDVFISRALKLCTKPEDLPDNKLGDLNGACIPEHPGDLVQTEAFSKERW
The method, boiled down:
as §1

In another assay the target is BMPR1A (Homo sapiens, UniProt P36894). The method, boiled down: as §1
BMPR1A, sequence (P36894 whole entry): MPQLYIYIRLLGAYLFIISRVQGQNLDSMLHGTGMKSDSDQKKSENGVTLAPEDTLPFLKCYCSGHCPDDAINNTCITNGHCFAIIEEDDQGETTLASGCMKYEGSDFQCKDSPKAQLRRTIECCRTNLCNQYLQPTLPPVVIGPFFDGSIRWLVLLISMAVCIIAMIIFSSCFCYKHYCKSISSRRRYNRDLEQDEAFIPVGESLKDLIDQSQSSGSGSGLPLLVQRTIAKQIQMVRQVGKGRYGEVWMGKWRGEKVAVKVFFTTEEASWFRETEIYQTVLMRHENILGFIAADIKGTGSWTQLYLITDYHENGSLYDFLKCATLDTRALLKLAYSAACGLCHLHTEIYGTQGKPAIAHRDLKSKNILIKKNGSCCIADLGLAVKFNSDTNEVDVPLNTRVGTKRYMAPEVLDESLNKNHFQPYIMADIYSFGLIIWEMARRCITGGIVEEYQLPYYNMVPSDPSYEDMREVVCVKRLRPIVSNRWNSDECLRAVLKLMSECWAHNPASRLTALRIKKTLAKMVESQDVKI
The next assay addresses TXK (Homo sapiens, UniProt P42681). Put shortly:
as §1

For the next assay, the target named is MAP3K15 (Homo sapiens, UniProt Q6ZN16). Put shortly:
as §1

In a further assay the target is EGFR(L861Q) (Homo sapiens, UniProt P00533, L861Q). The method, boiled down:
as §1

The next assay deals with STK16 (Homo sapiens, UniProt O75716). Put shortly:
as §1

A further assay deals with T3, DRAK1 (Homo sapiens, UniProt Q9UEE5).
T3 construct: gene STK17A
T3 sequence (Q9UEE5 whole entry): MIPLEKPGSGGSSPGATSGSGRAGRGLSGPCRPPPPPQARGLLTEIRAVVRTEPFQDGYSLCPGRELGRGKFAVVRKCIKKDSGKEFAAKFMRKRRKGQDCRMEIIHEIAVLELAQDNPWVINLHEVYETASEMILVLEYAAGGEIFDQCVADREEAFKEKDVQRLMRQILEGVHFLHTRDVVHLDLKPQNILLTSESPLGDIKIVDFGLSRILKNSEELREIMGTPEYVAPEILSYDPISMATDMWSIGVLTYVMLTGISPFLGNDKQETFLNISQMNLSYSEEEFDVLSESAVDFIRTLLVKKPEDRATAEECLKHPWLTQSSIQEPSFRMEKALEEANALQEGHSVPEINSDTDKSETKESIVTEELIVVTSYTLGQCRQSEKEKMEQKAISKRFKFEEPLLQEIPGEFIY
Put shortly: as §1

The next assay addresses PHKG1 (Homo sapiens, UniProt Q16816). Put shortly:
as §1

Another assay deals with T4, CDK11 (Homo sapiens, UniProt Q9BWU1).
T4 construct: gene CDK19
Put shortly:
as §1

A further assay deals with PIK3C2G (Homo sapiens, UniProt O75747). The method, boiled down:
as §1

A further assay deals with FLT3(ITD,F691L) (Homo sapiens, UniProt P36888, F691L/ITD). Put shortly:
as §1

The target of another assay is TLK1 (Homo sapiens, UniProt Q9UKI8). The method, boiled down:
as §1

The next assay has as its target MUSK (Homo sapiens, UniProt O15146). Put shortly: as §1
For a further assay, the target named is MAP3K4 (Homo sapiens, UniProt Q9Y6R4). Put shortly:
as §1

Another assay deals with CLK3 (Homo sapiens, UniProt P49761). Put shortly: as §1
The target in another assay is SBK1 (Homo sapiens, UniProt Q52WX2). Put shortly:
as §1

The next assay addresses SRPK3 (Homo sapiens, UniProt Q9UPE1). The method, boiled down:
as §1

A further assay deals with FLT3 (Homo sapiens, UniProt P36888). The method, boiled down: as §1
The next assay has as its target LIMK2 (Homo sapiens, UniProt P53671). Put shortly: as §1
The next assay has as its target T5, MEK1 (Homo sapiens, UniProt Q02750).
T5 construct: gene MAP2K1
Put shortly:
as §1

CAMK2D, sequence (Q13557 whole entry): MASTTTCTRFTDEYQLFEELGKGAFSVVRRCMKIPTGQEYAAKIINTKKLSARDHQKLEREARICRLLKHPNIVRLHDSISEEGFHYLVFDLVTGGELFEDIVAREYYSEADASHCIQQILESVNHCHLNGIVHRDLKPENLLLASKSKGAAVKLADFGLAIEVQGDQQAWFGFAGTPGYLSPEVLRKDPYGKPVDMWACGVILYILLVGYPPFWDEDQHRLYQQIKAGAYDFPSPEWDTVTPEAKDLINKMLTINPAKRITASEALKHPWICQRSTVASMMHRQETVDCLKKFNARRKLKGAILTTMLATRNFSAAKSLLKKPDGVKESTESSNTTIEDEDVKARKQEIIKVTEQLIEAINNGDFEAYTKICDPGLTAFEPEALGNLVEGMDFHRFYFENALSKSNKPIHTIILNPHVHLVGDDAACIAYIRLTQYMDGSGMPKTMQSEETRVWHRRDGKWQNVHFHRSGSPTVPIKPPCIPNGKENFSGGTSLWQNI
SRPK3, sequence (Q9UPE1 whole entry): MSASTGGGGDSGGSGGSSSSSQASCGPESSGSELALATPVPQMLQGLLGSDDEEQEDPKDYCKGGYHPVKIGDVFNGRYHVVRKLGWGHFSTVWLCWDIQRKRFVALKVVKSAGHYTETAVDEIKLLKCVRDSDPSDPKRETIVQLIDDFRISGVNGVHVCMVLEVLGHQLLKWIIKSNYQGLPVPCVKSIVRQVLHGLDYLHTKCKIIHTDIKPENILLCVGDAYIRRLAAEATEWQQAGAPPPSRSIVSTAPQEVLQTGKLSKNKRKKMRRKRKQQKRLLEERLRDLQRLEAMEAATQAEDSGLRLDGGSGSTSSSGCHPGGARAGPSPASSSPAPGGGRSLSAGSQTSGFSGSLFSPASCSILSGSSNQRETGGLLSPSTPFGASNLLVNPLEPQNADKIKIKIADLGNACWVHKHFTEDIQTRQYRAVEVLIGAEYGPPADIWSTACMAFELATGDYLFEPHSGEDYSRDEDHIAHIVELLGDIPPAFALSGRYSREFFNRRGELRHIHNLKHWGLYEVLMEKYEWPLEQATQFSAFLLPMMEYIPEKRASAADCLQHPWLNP
SBK1, sequence (Q52WX2 whole entry): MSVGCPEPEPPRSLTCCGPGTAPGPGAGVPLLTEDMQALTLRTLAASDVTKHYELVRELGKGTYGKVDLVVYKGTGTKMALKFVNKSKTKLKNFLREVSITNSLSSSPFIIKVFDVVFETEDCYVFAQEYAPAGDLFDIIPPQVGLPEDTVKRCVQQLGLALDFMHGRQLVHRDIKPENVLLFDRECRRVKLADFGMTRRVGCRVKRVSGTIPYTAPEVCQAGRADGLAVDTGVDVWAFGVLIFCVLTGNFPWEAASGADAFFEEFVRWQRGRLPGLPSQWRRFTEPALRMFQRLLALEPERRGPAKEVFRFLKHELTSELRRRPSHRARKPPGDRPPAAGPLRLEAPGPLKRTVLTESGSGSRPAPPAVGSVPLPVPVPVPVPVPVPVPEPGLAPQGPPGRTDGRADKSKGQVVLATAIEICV
MAP3K15, sequence (Q6ZN16 whole entry): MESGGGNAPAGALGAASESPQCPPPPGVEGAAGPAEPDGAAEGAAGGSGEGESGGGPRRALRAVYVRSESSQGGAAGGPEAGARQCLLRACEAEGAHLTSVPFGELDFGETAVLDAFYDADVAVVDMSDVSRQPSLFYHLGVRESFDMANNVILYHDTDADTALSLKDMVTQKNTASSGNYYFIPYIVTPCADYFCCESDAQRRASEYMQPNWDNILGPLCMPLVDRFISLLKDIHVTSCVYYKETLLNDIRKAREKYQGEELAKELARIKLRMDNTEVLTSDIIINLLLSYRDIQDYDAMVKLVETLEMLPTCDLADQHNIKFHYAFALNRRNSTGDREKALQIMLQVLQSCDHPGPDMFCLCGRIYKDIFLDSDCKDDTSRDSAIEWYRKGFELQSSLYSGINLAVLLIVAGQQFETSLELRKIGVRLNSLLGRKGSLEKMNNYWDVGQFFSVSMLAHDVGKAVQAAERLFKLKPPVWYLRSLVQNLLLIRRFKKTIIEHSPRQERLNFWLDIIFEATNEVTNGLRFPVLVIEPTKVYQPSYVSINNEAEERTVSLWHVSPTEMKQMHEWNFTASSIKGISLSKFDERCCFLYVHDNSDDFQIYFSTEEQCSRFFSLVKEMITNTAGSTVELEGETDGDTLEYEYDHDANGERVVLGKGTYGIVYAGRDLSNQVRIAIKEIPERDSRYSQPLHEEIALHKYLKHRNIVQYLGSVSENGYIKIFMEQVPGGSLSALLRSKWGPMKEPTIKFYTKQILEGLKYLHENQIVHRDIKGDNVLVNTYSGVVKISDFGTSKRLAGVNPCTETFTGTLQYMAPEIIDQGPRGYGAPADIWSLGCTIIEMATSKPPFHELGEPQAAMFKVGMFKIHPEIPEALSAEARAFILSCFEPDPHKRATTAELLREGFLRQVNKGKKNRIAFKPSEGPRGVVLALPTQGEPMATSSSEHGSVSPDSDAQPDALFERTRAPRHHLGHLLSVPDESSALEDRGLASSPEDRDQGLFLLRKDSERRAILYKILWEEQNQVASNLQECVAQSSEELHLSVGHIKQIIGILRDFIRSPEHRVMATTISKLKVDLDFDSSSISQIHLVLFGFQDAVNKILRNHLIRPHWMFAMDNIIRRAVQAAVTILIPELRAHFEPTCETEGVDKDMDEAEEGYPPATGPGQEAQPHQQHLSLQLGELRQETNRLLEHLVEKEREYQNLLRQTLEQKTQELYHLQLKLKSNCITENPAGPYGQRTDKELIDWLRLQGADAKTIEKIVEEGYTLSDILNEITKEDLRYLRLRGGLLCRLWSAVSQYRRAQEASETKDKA
T1 sequence (Q9Y6E0 whole entry): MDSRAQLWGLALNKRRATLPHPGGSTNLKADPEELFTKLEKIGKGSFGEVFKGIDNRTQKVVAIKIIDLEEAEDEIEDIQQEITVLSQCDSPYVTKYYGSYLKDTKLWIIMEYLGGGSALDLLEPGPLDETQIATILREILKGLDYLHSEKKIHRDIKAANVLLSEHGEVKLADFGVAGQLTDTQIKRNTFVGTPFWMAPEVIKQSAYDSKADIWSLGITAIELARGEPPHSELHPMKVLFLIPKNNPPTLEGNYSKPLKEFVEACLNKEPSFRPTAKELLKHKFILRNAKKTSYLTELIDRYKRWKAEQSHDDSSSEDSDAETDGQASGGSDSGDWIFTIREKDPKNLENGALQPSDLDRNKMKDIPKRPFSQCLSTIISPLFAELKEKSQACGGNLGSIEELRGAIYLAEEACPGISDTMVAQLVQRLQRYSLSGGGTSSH

As for `CNS(=O)(=O)c1ccc(N(C)C)c(Nc2ncnc3cc(OC)c(OC)cc23)c1` [compound 7, 3-((6,7-dimethoxyquinazolin-4-yl)amino)-4-(dimethylamino)-N-methylbenzenesulfonamide], the inhibition at 1 µM on CAMK2D was 0%; on FGFR2 it was 0%; on FLT3(D835H), 20%; on MST3, 0%; at ERK4, 0%; at BMPR1A it was 0%. The inhibition at 1 µM at TXK came out at 0%; at MAP3K15, 4%; at EGFR(L861Q), 0%; at STK16 it was 0%; at DRAK1, 0%; at PHKG1, 0%. For the same compound, the inhibition at 1 µM was 0% at CDK11; 20% at PIK3C2G; 22% at FLT3(ITD,F691L); 0% at TLK1; 0% on MUSK; 0% on MAP3K4. For the same compound, the inhibition at 1 µM at CLK3 is 18%; at SBK1, 29%; on SRPK3, 0%; at FLT3, 7%; on LIMK2, 0%; at MEK1 it was 35%.
